In the OligoGym collection:
Oligonucleotides are written 5' to 3', each unit as a sugar letter and its base; * is a phosphorothioate linkage, no mark a phosphodiester; rarer units and linkages stand in square brackets, end groups in braces. Plain capitals give the bases only. d = 2'-deoxy (DNA); r = 2'-OH (RNA)

Target: P2rx2 (rat)
Experiment: reporter assay of Huesken 2005
Conditions: siRNA
Further: test concentration or dose not given here.

| Substance | normalised inhibition (eCFP-eYFP dual reporter) [%] |
| --- | --- |
| sense rGrGrUrGrCrGrGrArArUrCrGrGrCrGrCrCrUrGdTdT / antisense rCrArGrGrCrGrCrCrGrArUrUrCrCrGrCrArCrCdAdC | 69.3 |
| sense rUrGrGrCrUrGrUrCrCrArGrUrCrUrCrCrUrCrGdTdT / antisense rCrGrArGrGrArGrArCrUrGrGrArCrArGrCrCrAdGdT | 67.4 |
| sense rArGrGrCrUrGrGrGrUrUrUrCrArUrUrGrUrUrGdTdT / antisense rCrArArCrArArUrGrArArArCrCrCrArGrCrCrUdGdA | 64.9 |
| sense rUrGrArGrArArGrGrCrArGrGrArGrArGrArArCdTdT / antisense rGrUrUrCrUrCrUrCrCrUrGrCrCrUrUrCrUrCrAdAdC | 32.3 |
| sense rCrCrArArGrArCrCrUrGrCrGrArGrGrUrGrUrCdTdT / antisense rGrArCrArCrCrUrCrGrCrArGrGrUrCrUrUrGrGdAdG | 68.7 |
| sense rUrCrArArGrUrArGrArUrGrGrCrCrUrGrUrGrAdTdT / antisense rUrCrArCrArGrGrCrCrArUrCrUrArCrUrUrGrAdGdG | 67.1 |
| sense rGrGrUrGrGrUrGrGrArCrArCrArCrUrUrGrGrCdTdT / antisense rGrCrCrArArGrUrGrUrGrUrCrCrArCrCrArCrCdTdG | 52.2 |
| sense rGrArCrCrCrUrGrCrCrUrCrCrUrCrArGrGrCrUdTdT / antisense rArGrCrCrUrGrArGrGrArGrGrCrArGrGrGrUrCdAdT | 61.9 |
| sense rArCrArArGrArUrArArArCrGrGrCrArCrUrArCdTdT / antisense rGrUrArGrUrGrCrCrGrUrUrUrArUrCrUrUrGrUdAdA | 50.6 |
| sense rUrCrGrUrGrCrArGrArArArArGrCrUrArCrCrAdTdT / antisense rUrGrGrUrArGrCrUrUrUrUrCrUrGrCrArCrGrAdTdG | 74.2 |
| sense rGrArGrGrArArUrArCrGrUrArArArGrCrCrCrCdTdT / antisense rGrGrGrGrCrUrUrUrArCrGrUrArUrUrCrCrUrCdCdA | 34.9 |
| sense rCrArCrUrArCrUrCrCrCrArGrGrArUrCrArGrCdTdT / antisense rGrCrUrGrArUrCrCrUrGrGrGrArGrUrArGrUrGdAdC | 46.4 |
| sense rCrUrCrCrUrUrCrCrUrGrUrGrUrGrArCrUrGrGdTdT / antisense rCrCrArGrUrCrArCrArCrArGrGrArArGrGrArGdCdC | 47.5 |
| sense rGrCrCrArUrArArGrArArGrUrUrCrGrArCrArAdTdT / antisense rUrUrGrUrCrGrArArCrUrUrCrUrUrArUrGrGrCdTdG | 88.6 |
| sense rUrUrCrArCrArGrCrUrCrUrArCrCrUrGrCrCrAdTdT / antisense rUrGrGrCrArGrGrUrArGrArGrCrUrGrUrGrArAdCdC | 51.7 |
| sense rCrArUrCrArUrCrArCrCrArArArGrUrCrArArGdTdT / antisense rCrUrUrGrArCrUrUrUrGrGrUrGrArUrGrArUrGdGdA | 71.5 |
| sense rArArArUrUrUrCrArCrCrArUrCrCrUrCrArUrCdTdT / antisense rGrArUrGrArGrGrArUrGrGrUrGrArArArUrUrUdGdG | 23.6 |
| sense rArGrGrArUrCrGrArGrGrUrUrArCrCrCrCrUrUdTdT / antisense rArArGrGrGrGrUrArArCrCrUrCrGrArUrCrCrUdGdG | 76.8 |
| sense rUrUrGrCrArArGrCrCrArGrArArGrArGrUrGrAdTdT / antisense rUrCrArCrUrCrUrUrCrUrGrGrCrUrUrGrCrArAdTdG | 72.8 |
| sense rCrArArGrGrCrArArUrGrGrGrArUrUrCrGrCrAdTdT / antisense rUrGrCrGrArArUrCrCrCrArUrUrGrCrCrUrUrGdCdA | 64.4 |
| sense rUrGrCrCrArArGrUrArUrUrArCrArArGrArUrAdTdT / antisense rUrArUrCrUrUrGrUrArArUrArCrUrUrGrGrCrAdAdA | 76.8 |
| sense rGrArCrArGrCrUrGrGrArCrArUrGrCrArArGrGdTdT / antisense rCrCrUrUrGrCrArUrGrUrCrCrArGrCrUrGrUrCdCdG | 35.3 |
| sense rCrCrGrGrArGrArGrCrUrCrCrArUrCrArUrCrAdTdT / antisense rUrGrArUrGrArUrGrGrArGrCrUrCrUrCrCrGrGdTdC | 54.2 |
| sense rCrUrArCrCrCrCrArArGrUrUrCrArArGrUrUrCdTdT / antisense rGrArArCrUrUrGrArArCrUrUrGrGrGrGrUrArGdTdG | 62.8 |

| Substance | normalised inhibition (eCFP-eYFP dual reporter) [%] |
| --- | --- |
| sense rUrCrArUrCrArArUrCrUrGrGrCrCrArCrUrGrCdTdT / antisense rGrCrArGrUrGrGrCrCrArGrArUrUrGrArUrGrAdTdG | 43.1 |
| sense rArCrCrArGrGrArCrArGrCrGrArGrArCrCrGrGdTdT / antisense rCrCrGrGrUrCrUrCrGrCrUrGrUrCrCrUrGrGrUdAdG | 49.5 |
| sense rCrGrGrArArGrArCrArArArGrUrGrUrGrGrGrAdTdT / antisense rUrCrCrCrArCrArCrUrUrUrGrUrCrUrUrCrCrGdAdC | 64.6 |
| sense rUrCrUrCrArUrCrCrUrGrCrUrUrUrArCrUrUrCdTdT / antisense rGrArArGrUrArArArGrCrArGrGrArUrGrArGrAdAdG | 61.3 |
| sense rArGrGrGrCrArCrUrGrUrGrUrArCrCrCrUrArUdTdT / antisense rArUrArGrGrGrUrArCrArCrArGrUrGrCrCrCrUdGdT | 55 |
| sense rGrUrGrUrCrArUrUrGrGrArGrUrCrArUrCrArUdTdT / antisense rArUrGrArUrGrArCrUrCrCrArArUrGrArCrArCdCdG | 59 |
| sense rUrCrCrCrArGrArCrCrUrUrGrGrGrArArCrArUdTdT / antisense rArUrGrUrUrCrCrCrArArGrGrUrCrUrGrGrGrAdAdG | 50.4 |
| sense rCrUrGrArCrArArCrCrArUrUrUrUrCrUrGrGrGdTdT / antisense rCrCrCrArGrArArArArUrGrGrUrUrGrUrCrArGdAdA | 40.3 |
| sense rArArArGrUrCrArArGrGrGrGrArUrCrArCrCrAdTdT / antisense rUrGrGrUrGrArUrCrCrCrCrUrUrGrArCrUrUrUdGdG | 66.2 |
| sense rUrGrUrCrUrGrArArUrCrArGrArGrUrGrCrArAdTdT / antisense rUrUrGrCrArCrUrCrUrGrArUrUrCrArGrArCrAdAdG | 80.9 |
| sense rGrGrArArGrArCrArArArGrUrGrUrGrGrGrArCdTdT / antisense rGrUrCrCrCrArCrArCrUrUrUrGrUrCrUrUrCrCdGdA | 69.5 |
| sense rUrCrArUrCrArArGrArArCrArGrCrArUrCrCrAdTdT / antisense rUrGrGrArUrGrCrUrGrUrUrCrUrUrGrArUrGrAdGdG | 53.7 |
| sense rArGrCrArUrArUrGrGrGrArCrArArArGrArCrCdTdT / antisense rGrGrUrCrUrUrUrGrUrCrCrCrArUrArUrGrCrUdGdG | 53.1 |
| sense rUrGrCrCrCrUrUrGrUrCrUrUrGrGrGrCrCrArGdTdT / antisense rCrUrGrGrCrCrCrArArGrArCrArArGrGrGrCrAdAdG | 37 |
| sense rUrUrGrCrCrArArGrUrArUrUrArCrArArGrArUdTdT / antisense rArUrCrUrUrGrUrArArUrArCrUrUrGrGrCrArAdAdC | 56.7 |
| sense rUrGrGrCrCrArCrUrGrCrUrCrUrGrArCrCrUrCdTdT / antisense rGrArGrGrUrCrArGrArGrCrArGrUrGrGrCrCrAdGdA | 57 |
| sense rGrArArArUrUrCrArGrUrCrUrCrArUrUrCrCrCdTdT / antisense rGrGrGrArArUrGrArGrArCrUrGrArArUrUrUrCdCdC | 39.7 |
| sense rArArCrUrGrUrGrArCrCrUrGrGrArCrUrUrGrUdTdT / antisense rArCrArArGrUrCrCrArGrGrUrCrArCrArGrUrUdCdC | 38.6 |
| sense rCrArGrCrArUrArUrGrGrGrArCrArArArGrArCdTdT / antisense rGrUrCrUrUrUrGrUrCrCrCrArUrArUrGrCrUrGdGdC | 51.7 |
| sense rArArCrArArGrCrUrCrUrArCrArGrCrCrArUrAdTdT / antisense rUrArUrGrGrCrUrGrUrArGrArGrCrUrUrGrUrUdTdT | 76.6 |
| sense rGrArUrCrArGrGrArCrUrCrUrGrArCrCrCrArUdTdT / antisense rArUrGrGrGrUrCrArGrArGrUrCrCrUrGrArUrCdAdA | 81.3 |
| sense rGrGrGrArArArUrUrCrArGrUrCrUrCrArUrUrCdTdT / antisense rGrArArUrGrArGrArCrUrGrArArUrUrUrCrCrCdTdG | 72.6 |
| sense rCrUrArCrArArCrUrUrCrArGrGrUrUrUrGrCrCdTdT / antisense rGrGrCrArArArCrCrUrGrArArGrUrUrGrUrArGdCdC | 57 |
| sense rArGrUrCrArCrUrArCrUrCrCrCrArGrGrArUrCdTdT / antisense rGrArUrCrCrUrGrGrGrArGrUrArGrUrGrArCrUdAdG | 64.6 |

Target: UBE2C
Experiment: reporter assay of Huesken 2005
Conditions: siRNA

| Substance | normalised inhibition (eCFP-eYFP dual reporter) [%] |
| --- | --- |
| sense rGrCrCrCrUrGrCrUrArUrCrArCrCrCrCrArArCdTdT / antisense rGrUrUrGrGrGrGrUrGrArUrArGrCrArGrGrGrCdGdT | 63.4 |
| sense rArCrArUrCrCrUrGrArArGrGrArArArArGrUrGdTdT / antisense rCrArCrUrUrUrUrCrCrUrUrCrArGrGrArUrGrUdCdC | 46.2 |
| sense rGrGrUrCrUrGrCrCrCrUrGrUrArUrGrArUrGrUdTdT / antisense rArCrArUrCrArUrArCrArGrGrGrCrArGrArCrCdAdC | 55.5 |
| sense rArCrArUrArUrGrCrCrUrGrGrArCrArUrCrCrUdTdT / antisense rArGrGrArUrGrUrCrCrArGrGrCrArUrArUrGrUdTdA | 75.7 |
